{"source": "patent US20260294863A1", "about": "“METHOD OF TREATING FIBROTIC-RELATED CONDITION” (YISSUM RESEARCH DEVELOPMENT COMPANY OF THE HEBREW …, priority 2023, published 2026)", "key": {"TNFα [1]": {"test_system": "TNFα", "assay": "Secretion of TNFα from BzATP/LPS-activated microglia (ELISA)", "format": "cell-based, Balb/C mice", "protocol": "(§1) Experiments were performed on primary microglial cells isolated from brains of neonatal Balb/C mice as previously described (Reichert and Rotshenker, 2003). The brains were stripped of their meninges and enzymatically dissociated. Cells were plated on Poly-L-lysine coated flasks for one week, re-plated for 1- to 2-hr on bacteriological plates and non-adherent cells were washed away. Microglia were propagated by incubation in 20% of medium, conditioned by the L-cell line that produces mouse-CSF. They were identified by morphology and positive immune-reactivity to P2y12, F4/80, complement receptor-3 and Galectin-3/MAC-2 (Reichert and Rotshenker 2003; Gitik et al. 2011).\n(§2) Cytokines were measured as previously described (Shamash et al. 2002) using ELISA Max deluxe set (Biolegend, CA, USA) for secreted TNFα and IL-6 proteins and ELISA DuoSet (R&D systems, UK) for secreted and cell associated IL-1β, according to manufacturer's instructions.\n(§3) The effect of ladostigil at concentrations of 1×10^−13 M to 1×10^−9 M on the secretion of cytokine proteins was assessed by adding it to microglia for 2 hr before LPS (0.75 μg/ml) and BzATP (400 μM). Other microglia were treated similarly with the steroid, budesonide as a reference standard at concentrations of 1× 10^−13 to 1× 10^−11 M. Measurements of cytokine secretion were performed 8 hrs after addition of LPS and BzATP. Since the levels of secreted IL-1β were still low, samples were concentrated 2- to 4-fold by an Amicon ultra-centrifugal filter device (Merck-Millipore, Ireland). ELISA was used to quantify the levels of cytokine proteins. Protein content in the microglia lysate was measured by Bradford and levels of cytokines were calculated and presented as pg/μg of microglial protein."}, "IL1β": {"test_system": "IL1β", "assay": "Secretion of IL1β from BzATP/LPS-activated microglia (ELISA)", "format": "cell-based, Balb/C mice", "protocol": "as §1, §2, §3"}, "TNFAIP3": {"test_system": "TNFAIP3", "assay": "Levels of TNFAIP3 protein in microglial cytoplasm", "format": "cell-based, Balb/C mice", "protocol": "as §1\nThe addition of BzATP/LPS to microglia increased cytoplasmic levels of TNFαIP3 protein and nuclear ERGR1 protein."}, "[2]": {"assay": "Body weight in bleomycin-induced lung fibrosis", "format": "in vivo, C57BL/6JOlaHsd mice", "conditions": "bleomycin lung fibrosis", "protocol": "The animal model of bleomycin-induced lung fibrosis is widely used to characterize the potential inhibitory effect of newly developed drugs (Distler et al. 2019). Experiments were performed in C57BL/6JOlaHsd male and female mice aged 12-13 weeks. Male mice weighed 23-27.3 g and female mice, 19.4-21.1 g. They were housed under pathogen-free conditions, up to 6 per cage, in IVC cages under a controlled temperature of 22-24° C., humidity and alternating 12-h light/dark cycles and provided with food and water ad libitum. In order to minimize the stress of daily injection, ladostigil (5 mg/Kg/day) was administered by micro-osmotic pumps, implanted subcutaneously under ketamine/xylazine anesthesia, 5 days before administration of bleomycin, and delivered for 3 weeks to mice of each sex. Saline (2-3/sex) and bleomycin controls were anesthetized as described above. Bleomycin solution (0.25 mg/kg in 50 μl) was instilled into the lumen of the trachea as shown in a video by Ehrentraut et al. (2019). […] Mice were weighed daily and sacrificed on day 21. Bronchial fluid was collected as described in Ehrentraut et al. (2019). TNFα and IL-6 in the bronchial fluid lavage was measured by ELISA as described in the preceding section.\nExperiments were performed in C57BL/6JOlaHsd male mice aged 12-13 weeks as described for ladostigil. AN1284 (2.5 mg/kg/day) was administered by micro-osmotic pumps, implanted subcutaneously under ketamine/xylazine anesthesia, 5 days before administration of bleomycin and delivered for 3 weeks. Mice were weighed daily, sacrificed on day 21 and bronchial fluid was collected. Fibrosis was measured by staining with Sirius red as described for ladostigil. TNFα and IL-6 in the bronchial fluid lavage was measured by ELISA as described for ladostigil."}, "TNFα [3]": {"test_system": "TNFα", "assay": "TNFα in bronchial fluid, bleomycin-induced lung fibrosis (ELISA)", "format": "in vivo, C57BL/6JOlaHsd mice", "conditions": "ladostigil, bleomycin-induced lung fibrosis", "protocol": "(§4) The animal model of bleomycin-induced lung fibrosis is widely used to characterize the potential inhibitory effect of newly developed drugs (Distler et al. 2019). Experiments were performed in C57BL/6JOlaHsd male and female mice aged 12-13 weeks. Male mice weighed 23-27.3 g and female mice, 19.4-21.1 g. They were housed under pathogen-free conditions, up to 6 per cage, in IVC cages under a controlled temperature of 22-24° C., humidity and alternating 12-h light/dark cycles and provided with food and water ad libitum. In order to minimize the stress of daily injection, ladostigil (5 mg/Kg/day) was administered by micro-osmotic pumps, implanted subcutaneously under ketamine/xylazine anesthesia, 5 days before administration of bleomycin, and delivered for 3 weeks to mice of each sex. Saline (2-3/sex) and bleomycin controls were anesthetized as described above. Bleomycin solution (0.25 mg/kg in 50 μl) was instilled into the lumen of the trachea as shown in a video by Ehrentraut et al. (2019). […] TNFα and IL-6 in the bronchial fluid lavage was measured by ELISA as described in the preceding section.\n(§5) Experiments were performed in C57BL/6JOlaHsd male mice aged 12-13 weeks as described for ladostigil. […] Fibrosis was measured by staining with Sirius red as described for ladostigil. TNFα and IL-6 in the bronchial fluid lavage was measured by ELISA as described for ladostigil."}, "IL-6": {"test_system": "IL-6", "assay": "IL-6 in bronchial fluid, bleomycin-induced lung fibrosis (ELISA)", "format": "in vivo, C57BL/6JOlaHsd mice", "conditions": "ladostigil, bleomycin-induced lung fibrosis", "protocol": "as §4, §5"}, "[4]": {"assay": "Body weight in bleomycin-induced skin sclerosis", "format": "in vivo, C57BL/6 mice", "conditions": "10 mg/kg/day in drinking fluid", "protocol": "(§6) Male C57BL/6 mice aged 8 weeks were housed under pathogen-free conditions at a controlled temperature of 22-24° C., humidity and alternating 12-h light/dark cycles and provided with food and water ad libitum. Skin sclerosis was induced as described by Ravanetti et al, (2020). A small incision was made in the skin at the back caudal to the scapulae and subcutaneous pocket was created into which an Alzet micro-osmotic pump was implanted, and the incision closed with two stiches and a surgical clip. The pumps contained bleomycin, (delivered at the rate of 60 U/kg body weight) or saline (control) and were removed 10 days after implantation. The mice were monitored daily until they recovered completely and weighed twice weekly from the beginning of the experiment.\n(§7) Ladostigil (10 mg/kg/day) was administered in the drinking fluid to 10 mice, housed 2/cage, from 3 days before bleomycin pump installation until the end of the experiment. The fluid intake of the mice was measured daily. The dose of ladostigil was adjusted accordingly. Bleomycin alone, (10 mice) and saline controls (6 mice) received regular drinking fluid."}, "skin sclerosis": {"test_system": "skin sclerosis", "assay": "Dermal and hypodermal thickness in bleomycin-induced skin sclerosis", "format": "in vivo, C57BL/6 mice", "conditions": "ladostigil 10 mg/kg/day + bleomycin; p<0.05", "protocol": "as §6, §7\nSkin was harvested on the gluteal region to avoid dermal fibrosis artifact due to proximity to the site of implant. For histological assessment, the samples were dehydrated in a graded ethanol series, clarified in xylene, and paraffin embedded. They were mounted on slides and paraffin was removed. Sections of 5 μm thickness were cut with a rotary microtome and stained with hematoxylin and eosin (H&E)"}, "[5]": {"test_system": "cells (oxidative stress induced by Sin 1)", "conditions": "cited from earlier work"}, "[6]": {"test_system": "primary mouse microglial cultures activated by lipopolysaccharide (LPS)", "conditions": "cited from earlier work"}, "NFκB": {"test_system": "NFκB", "conditions": "LPS; cited from earlier work"}, "[7]": {"conditions": "all concentrations tested, added 2 hrs before BzATP and LPS, 0.1% BSA, p<0.01"}}, "note": "Entries after “also recorded” stand apart in the source; their conditions may differ."}
{"molecule": "C#CCN[C@@H]1CCc2ccc(OC(=O)N(C)CC)cc21", "note": "[Ladostigil, 6-(N-ethyl, N-methylcarbamyloxy)-N propargyl-1 (R)-aminoindan hemitartrate]", "values": [{"measurement": "minimal effective concentration", "setting": "TNFα [1]; Mus musculus, microglia, BzATP/LPS, medium containing BSA, 8 hrs, read-out: lowest concentration that significantly decreased TNFα secretion", "value": "1e-07", "unit": "µM"}, {"measurement": "reduction of TNFα release", "setting": "TNFα [1]; [7]", "value": "reduced the 3 cytokines significantly"}, {"measurement": "Emax", "setting": "IL1β; Mus musculus, Microglia, 8 h, 1×10^−11-1×10^−9 M, read-out: maximal reduction of IL1β", "value": "~50", "unit": "%"}, {"measurement": "minimal effective concentration", "setting": "IL1β; Mus musculus, microglia, BzATP/LPS, medium containing BSA, 8 hrs, read-out: lowest concentration that significantly decreased IL1β secretion", "value": "1e-06", "unit": "µM"}, {"measurement": "reduction of IL1β release", "setting": "IL1β; [7]", "value": "reduced the 3 cytokines significantly"}, {"measurement": "reduction of IL1β compared with reduction of TNFα", "setting": "IL1β; ladostigil 1×10^−9 M, budesonide 1×10^−11 M", "value": "greater than that of TNFα"}, {"measurement": "Mean conc. ± SEM of TNFAIP3 in microglial cytoplasm", "setting": "TNFAIP3; BzATP/LPS, ladostigil 1×10^−10 M, Medium 19.8 ± 0.6", "value": "28.8 ± 0.9"}, {"measurement": "change in cytoplasmic TNFαIP3 protein", "setting": "TNFAIP3; microglia, ladostigil 1×10^−10 M on top of BzATP/LPS", "value": "further increase"}, {"measurement": "body weight loss", "setting": "[2]; females, 5 and 10 mg/kg", "value": "significantly reduced weight loss"}, {"measurement": "body weight loss", "setting": "[2]; males, only at 10 mg/kg", "value": "significantly reduced weight loss"}, {"measurement": "TNFα in bronchial fluid", "setting": "TNFα [3]", "value": "generally not affected; also recorded: did not reduce"}, {"measurement": "IL-6 in bronchial fluid", "setting": "IL-6", "value": "generally not affected; also recorded: did not reduce"}, {"measurement": "weight gain compared with bleomycin", "setting": "[4]; days 18, 21, 24 and 27", "value": "greater than in those on bleomycin"}, {"measurement": "increase in body weight", "setting": "[4]; days 24-27, skin sclerosis", "value": 15, "unit": "%"}, {"measurement": "dermal thickness", "setting": "skin sclerosis", "value": "significant reduction of dermal thickness"}, {"measurement": "hypodermal thickness", "setting": "skin sclerosis", "value": "increase of hypodermal thickness"}, {"measurement": "concentration preventing oxidative stress, fold lower than those inhibiting AChE or MAO", "setting": "[5]", "value": "20 -fold"}, {"measurement": "oxidative stress in cells / fall in mitochondrial potential", "setting": "[5]; induced by Sin 1", "value": "prevented oxidative stress in cells"}, {"measurement": "IL1β gene expression", "setting": "[6]", "value": "decreased gene expression"}, {"measurement": "IL-6 gene expression", "setting": "[6]", "value": "decreased gene expression"}, {"measurement": "TNFα gene expression", "setting": "[6]", "value": "decreased gene expression"}, {"measurement": "nuclear translocation of NFκB", "setting": "NFκB", "value": "decrease in the nuclear translocation of NFκB"}]}
